Assay results: PubChem BioAssay (NCI)
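All cell lines were grown in 96-well plates and treated with compound for 48 hours. Here, GI50 denotes the concentration required for 50% inhibition of growth. The concentration for full growth arrest is given as TGI.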

Columns and labels:
Experiment in all cases: DTP human tumour cell line panel, 48 h
PC-3 prostate = tested on: PC-3 prostate
COLO 205 colon = tested on: COLO 205 colon
HT29 colon = tested on: HT29 colon
SK-MEL-2 melanoma = tested on: SK-MEL-2 melanoma
MALME-3M melanoma = tested on: MALME-3M melanoma
TK-10 renal = tested on: TK-10 renal
HCT-116 colon = tested on: HCT-116 colon
T-47D breast = tested on: T-47D breast
A498 renal = tested on: A498 renal
CAKI-1 renal = tested on: CAKI-1 renal
HCT-15 colon = tested on: HCT-15 colon
786-0 renal = tested on: 786-0 renal
OVCAR-4 ovarian = tested on: OVCAR-4 ovarian
K-562 leukemia = tested on: K-562 leukemia
HCC-2998 colon = tested on: HCC-2998 colon
SNB-19 CNS = tested on: SNB-19 CNS
NCI-H226 lung = tested on: NCI-H226 lung
ACHN renal = tested on: ACHN renal
SNB-75 CNS = tested on: SNB-75 CNS
IGROV1 ovarian = tested on: IGROV1 ovarian
MOLT-4 leukemia = tested on: MOLT-4 leukemia
MDA-MB-231 breast = tested on: MDA-MB-231 breast
SW-620 colon = tested on: SW-620 colon
OVCAR-3 ovarian = tested on: OVCAR-3 ovarian
SF-539 CNS = tested on: SF-539 CNS
M14 melanoma = tested on: M14 melanoma
NCI-H522 lung = tested on: NCI-H522 lung
CCRF-CEM leukemia = tested on: CCRF-CEM leukemia
HS 578T breast = tested on: HS 578T breast
HOP-62 NSCLC = tested on: HOP-62 NSCLC
SK-MEL-5 melanoma = tested on: SK-MEL-5 melanoma
A549 NSCLC = tested on: A549 NSCLC
SK-MEL-28 melanoma = tested on: SK-MEL-28 melanoma
SF-295 CNS = tested on: SF-295 CNS
HL-60(TB) leukemia = tested on: HL-60(TB) leukemia
NCI-H460 lung = tested on: NCI-H460 lung
MDA-MB-435 = tested on: MDA-MB-435
HOP-92 NSCLC = tested on: HOP-92 NSCLC
SK-OV-3 ovarian = tested on: SK-OV-3 ovarian
U251 CNS = tested on: U251 CNS
RXF 393 renal = tested on: RXF 393 renal
KM12 colon = tested on: KM12 colon
UACC-62 melanoma = tested on: UACC-62 melanoma
SR leukemia = tested on: SR leukemia
BT-549 breast = tested on: BT-549 breast
NCI/ADR-RES ovarian = tested on: NCI/ADR-RES ovarian
NCI-H23 lung = tested on: NCI-H23 lung
UO-31 renal = tested on: UO-31 renal
EKVX NSCLC = tested on: EKVX NSCLC
LOX IMVI melanoma = tested on: LOX IMVI melanoma
SF-268 CNS = tested on: SF-268 CNS
UACC-257 melanoma = tested on: UACC-257 melanoma
OVCAR-5 ovarian = tested on: OVCAR-5 ovarian
SN12C renal = tested on: SN12C renal
MCF7 breast = tested on: MCF7 breast
RPMI-8226 leukemia = tested on: RPMI-8226 leukemia
DU-145 prostate = tested on: DU-145 prostate
OVCAR-8 ovarian = tested on: OVCAR-8 ovarian

SMILES: CN(C)C(=O)O[C@H]1CN[C@H](C#Cc2cc3ncnc(Nc4ccc(OCc5cccc(F)c5)c(Cl)c4)c3s2)C1
- GI50 (PC-3 prostate): 5.44 µM
- TGI (PC-3 prostate): > 25 µM
- GI50 (COLO 205 colon): > 18.6 µM
- TGI (COLO 205 colon): > 25 µM
- GI50 (HT29 colon): > 23 µM
- TGI (HT29 colon): > 25 µM
- GI50 (SK-MEL-2 melanoma): > 25 µM
- TGI (SK-MEL-2 melanoma): > 25 µM
- GI50 (MALME-3M melanoma): 5.15 µM
- TGI (MALME-3M melanoma): 14.5 µM
- GI50 (TK-10 renal): 0.765 µM
- TGI (TK-10 renal): > 17.4 µM
- GI50 (HCT-116 colon): 12.1 µM
- TGI (HCT-116 colon): > 25 µM
- GI50 (T-47D breast): 2.98 µM
- TGI (T-47D breast): > 25 µM
- GI50 (A498 renal): 4.19 µM
- TGI (A498 renal): 23.3 µM
- GI50 (CAKI-1 renal): 4.06 µM
- TGI (CAKI-1 renal): > 25 µM
- GI50 (HCT-15 colon): 14.2 µM
- TGI (HCT-15 colon): > 25 µM
- GI50 (786-0 renal): 5.8 µM
- TGI (786-0 renal): 15 µM
- GI50 (OVCAR-4 ovarian): 20.4 µM
- TGI (OVCAR-4 ovarian): > 25 µM
- GI50 (K-562 leukemia): > 17.1 µM
- TGI (K-562 leukemia): > 25 µM
- GI50 (HCC-2998 colon): 11.3 µM
- TGI (HCC-2998 colon): > 25 µM
- GI50 (SNB-19 CNS): > 19.7 µM
- TGI (SNB-19 CNS): > 25 µM
- GI50 (NCI-H226 lung): 5.49 µM
- TGI (NCI-H226 lung): 19.2 µM
- GI50 (ACHN renal): 6.27 µM
- TGI (ACHN renal): > 25 µM
- GI50 (SNB-75 CNS): 9.66 µM
- TGI (SNB-75 CNS): > 25 µM
- GI50 (IGROV1 ovarian): 4.61 µM
- TGI (IGROV1 ovarian): > 25 µM
- GI50 (MOLT-4 leukemia): 4.53 µM
- TGI (MOLT-4 leukemia): > 25 µM
- GI50 (MDA-MB-231 breast): 4.14 µM
- TGI (MDA-MB-231 breast): 11.6 µM
- GI50 (SW-620 colon): > 25 µM
- TGI (SW-620 colon): > 25 µM
- GI50 (OVCAR-3 ovarian): 4.2 µM
- TGI (OVCAR-3 ovarian): 16.3 µM
- GI50 (SF-539 CNS): 8.16 µM
- TGI (SF-539 CNS): > 25 µM
- GI50 (M14 melanoma): > 25 µM
- TGI (M14 melanoma): > 25 µM
- GI50 (NCI-H522 lung): 0.977 µM
- TGI (NCI-H522 lung): > 12.7 µM
- GI50 (CCRF-CEM leukemia): 3.17 µM
- TGI (CCRF-CEM leukemia): > 25 µM
- GI50 (HS 578T breast): 10.4 µM
- TGI (HS 578T breast): > 25 µM
- GI50 (HOP-62 NSCLC): > 23.4 µM
- TGI (HOP-62 NSCLC): > 25 µM
- GI50 (SK-MEL-5 melanoma): 16 µM
- TGI (SK-MEL-5 melanoma): > 25 µM
- GI50 (A549 NSCLC): 6.12 µM
- TGI (A549 NSCLC): > 25 µM
- GI50 (SK-MEL-28 melanoma): > 25 µM
- TGI (SK-MEL-28 melanoma): > 25 µM
- GI50 (SF-295 CNS): > 20 µM
- TGI (SF-295 CNS): > 25 µM
- GI50 (HL-60(TB) leukemia): 5.22 µM
- TGI (HL-60(TB) leukemia): 15 µM
- GI50 (NCI-H460 lung): 7.25 µM
- TGI (NCI-H460 lung): > 25 µM
- GI50 (MDA-MB-435): > 25 µM
- TGI (MDA-MB-435): > 25 µM
- GI50 (HOP-92 NSCLC): 1.77 µM
- TGI (HOP-92 NSCLC): 19.4 µM
- GI50 (SK-OV-3 ovarian): 0.102 µM
- TGI (SK-OV-3 ovarian): > 25 µM
- GI50 (U251 CNS): 14.7 µM
- TGI (U251 CNS): > 25 µM
- GI50 (RXF 393 renal): 5.48 µM
- TGI (RXF 393 renal): > 25 µM
- GI50 (KM12 colon): 7.37 µM
- TGI (KM12 colon): > 25 µM
- GI50 (UACC-62 melanoma): > 25 µM
- TGI (UACC-62 melanoma): > 25 µM
- GI50 (SR leukemia): 5.86 µM
- TGI (SR leukemia): > 25 µM
- GI50 (BT-549 breast): 4 µM
- TGI (BT-549 breast): 10.2 µM
- GI50 (NCI/ADR-RES ovarian): 9.82 µM
- TGI (NCI/ADR-RES ovarian): > 25 µM
- GI50 (NCI-H23 lung): > 25 µM
- TGI (NCI-H23 lung): > 25 µM
- GI50 (UO-31 renal): 4.04 µM
- TGI (UO-31 renal): > 23.9 µM
- GI50 (EKVX NSCLC): 1.77 µM
- TGI (EKVX NSCLC): > 23 µM
- GI50 (LOX IMVI melanoma): > 23.2 µM
- TGI (LOX IMVI melanoma): > 25 µM
- GI50 (SF-268 CNS): 5.41 µM
- TGI (SF-268 CNS): > 25 µM
- GI50 (UACC-257 melanoma): > 25 µM
- TGI (UACC-257 melanoma): > 25 µM
- GI50 (OVCAR-5 ovarian): > 25 µM
- TGI (OVCAR-5 ovarian): > 25 µM
- GI50 (SN12C renal): 5.64 µM
- TGI (SN12C renal): > 25 µM
- GI50 (MCF7 breast): 14.6 µM
- TGI (MCF7 breast): > 25 µM
- GI50 (RPMI-8226 leukemia): 4.63 µM
- TGI (RPMI-8226 leukemia): 15.2 µM
- GI50 (DU-145 prostate): 9.76 µM
- TGI (DU-145 prostate): > 25 µM
- GI50 (OVCAR-8 ovarian): 7.58 µM
- TGI (OVCAR-8 ovarian): > 25 µM

SMILES: CC(=O)OC(Cn1cncn1)(Cn1cncn1)c1ccc(Cl)cc1Cl
- TGI (PC-3 prostate): > 100 µM
- TGI (COLO 205 colon): > 100 µM
- TGI (HT29 colon): > 100 µM
- TGI (SK-MEL-2 melanoma): > 100 µM
- TGI (TK-10 renal): > 100 µM
- TGI (T-47D breast): > 100 µM
- TGI (A498 renal): > 100 µM
- TGI (CAKI-1 renal): > 100 µM
- TGI (HCT-15 colon): > 100 µM
- TGI (786-0 renal): > 100 µM
- TGI (OVCAR-4 ovarian): > 100 µM
- TGI (K-562 leukemia): > 100 µM
- TGI (HCC-2998 colon): > 100 µM
- TGI (SNB-19 CNS): > 100 µM
- TGI (NCI-H226 lung): > 100 µM
- TGI (SNB-75 CNS): > 100 µM
- TGI (IGROV1 ovarian): > 100 µM
- TGI (MOLT-4 leukemia): > 100 µM
- TGI (MDA-MB-231 breast): > 100 µM
- TGI (SW-620 colon): > 100 µM
- TGI (OVCAR-3 ovarian): > 100 µM
- TGI (SF-539 CNS): > 100 µM
- TGI (M14 melanoma): > 100 µM
- TGI (NCI-H522 lung): > 100 µM
- TGI (CCRF-CEM leukemia): > 100 µM
- TGI (HS 578T breast): > 100 µM
- TGI (HOP-62 NSCLC): > 100 µM
- TGI (SK-MEL-5 melanoma): > 100 µM
- TGI (A549 NSCLC): > 100 µM
- TGI (SK-MEL-28 melanoma): > 100 µM
- TGI (SF-295 CNS): > 100 µM
- TGI (HL-60(TB) leukemia): > 100 µM
- TGI (NCI-H460 lung): > 100 µM
- TGI (MDA-MB-435): > 100 µM
- TGI (HOP-92 NSCLC): > 100 µM
- TGI (SK-OV-3 ovarian): > 100 µM
- TGI (U251 CNS): > 100 µM
- TGI (RXF 393 renal): > 100 µM
- TGI (KM12 colon): > 100 µM
- TGI (BT-549 breast): > 100 µM
- TGI (NCI/ADR-RES ovarian): > 100 µM
- TGI (UO-31 renal): > 100 µM
- TGI (EKVX NSCLC): > 100 µM
- TGI (LOX IMVI melanoma): > 100 µM
- TGI (SF-268 CNS): > 100 µM
- TGI (UACC-257 melanoma): > 100 µM
- TGI (OVCAR-5 ovarian): > 100 µM
- TGI (MCF7 breast): > 100 µM
- TGI (RPMI-8226 leukemia): > 100 µM
- TGI (DU-145 prostate): > 100 µM
- TGI (OVCAR-8 ovarian): > 100 µM
